Converted amounts (≈) assume the structure as drawn.
Legend:
[1] = system: Mycobacterium tuberculosis; test: Antibacterial activity against Mycobacterium tuberculosis H37Rv assessed as bacterial growth inhibition measured after 7 days by resazurin based assay; type: functional; conditions: 168 h, time 7 day
[2] = Cytotoxicity against human HepG2 cells incubated for 72 hrs by MTT assay; type: toxicity, cell-based
[3] = Cytotoxicity against human HepG2 cells incubated for 72 hrs by NRU assay; type: toxicity, cell-based
[4] = Cytotoxicity against African green monkey Vero cells incubated for 72 hrs by MTT assay; type: toxicity, cell-based; conditions: chlorocebus sabaeus
[5] = Cytotoxicity against African green monkey Vero cells incubated for 72 hrs by NRU assay; type: toxicity, cell-based; conditions: chlorocebus sabaeus
[6] = Chemical stability of compound at pH 1.2 assessed as compound remaining at 10 uM incubated for 24 hrs by HPLC-MS/MS analysis; type: physicochemical; conditions: buffer, read-out: Stability
[7] = Chemical stability of compound at pH 7.4 assessed as compound remaining at 10 uM incubated for 24 hrs by HPLC-MS/MS analysis; type: physicochemical; conditions: buffer, read-out: Stability
[8] = Chemical stability of compound at pH 9.1 assessed as compound remaining at 10 uM incubated for 24 hrs by HPLC-MS/MS analysis; type: physicochemical; conditions: buffer, read-out: Stability
[9] = Solubility of compound at pH 1.2 at 1 mg incubated for 4 hrs by LC analysis; type: physicochemical
[10] = Solubility of compound at pH 7.4 at 1 mg incubated for 4 hrs by LC analysis; type: physicochemical
[11] = Permeability of compound at 10 uM measured after 5 hrs by PAMPA assay; type: ADME; conditions: read-out: permeability
[12] = Metabolic stability in rat liver microsomes assessed as half life at 1 mg/ml measured for 30 mins in presence of […] by HPLC-MS/MS analysis; type: ADME, Microsome
[13] = system: Mycobacterium tuberculosis; test: Antibacterial activity against H37Rv infected in mouse RAW264.7 cells assessed as reduction in bacterial load by measuring colony forming units per well at 2.5 uM measured after 5 days by plate counting method (reference value: 4.19 +/- 0.41 log10CFU); type: functional; conditions: time 5 day
[14] = system: Mycobacterium tuberculosis; test: Antibacterial activity against H37Rv infected in mouse RAW264.7 cells assessed as reduction in bacterial load by measuring colony forming units per well at 2.5 uM measured for 5 days by plate counting method (Rvb ~ 1.25 log10CFU); type: functional; conditions: time 5 day

COc1ccc2nc(C)cc(OCC(=O)Nc3ccc(N4CCCCC4)cc3)c2c1
MIC [1]: 0.09 µM (≈ 0.0365 µg/mL)

CCc1cc(OCC(=O)Nc2ccc(N3CCC(c4ccc(OC(F)(F)F)cc4)CC3)cc2)c2cc(OC)ccc2n1
MIC [1]: 2.1 µM (≈ 1.22 µg/mL)

COc1ccc2nc(C)cc(OCC(=O)Nc3ccc(N4CCC(c5ccc(OC(F)(F)F)cc5)CC4)cc3)c2c1
MIC [1]: 0.02 µM (≈ 0.0113 µg/mL)
CC50 at 72 h [2]: > 10 µM
CC50 at 72 h [3]: > 10 µM
CC50 at 72 h [4]: > 10 µM
CC50 at 72 h [5]: > 10 µM
remaining at 24 h, 10 µM [6]: 100%
remaining at 24 h, 10 µM [7]: 85.3%
remaining at 24 h, 10 µM [8]: 96.8%
solubility at 4 h [9]: 20 µM (≈ 11.3 µg/mL)
solubility at 4 h [10]: 2190 µM (≈ 1240 µg/mL)
Papp at 5 h, 10 µM [11]: 1.6 nm/s
half-life [12]: 21 min

Cc1cc(OCC(=O)Nc2ccc(N3CCC(c4ccccc4)CC3)cc2)c2cc(Br)ccc2n1
MIC [1]: 0.02 µM (≈ 0.0106 µg/mL)
CC50 at 72 h [2]: > 10 µM
CC50 at 72 h [3]: > 10 µM
CC50 at 72 h [4]: > 10 µM
CC50 at 72 h [5]: > 10 µM
remaining at 24 h, 10 µM [6]: 100%
remaining at 24 h, 10 µM [7]: 93.9%
remaining at 24 h, 10 µM [8]: 100%
solubility at 4 h [9]: > 1880 µM
solubility at 4 h [10]: 2640 µM (≈ 1400 µg/mL)
Papp at 5 h, 10 µM [11]: 3.5 nm/s
half-life [12]: 76.4 min

COc1ccc2nc(C)cc(OCC(=O)Nc3ccc(N4CCC(c5ccccc5)CC4)cc3)c2c1
MIC [1]: 0.02 µM (≈ 0.00963 µg/mL)
CC50 at 72 h [2]: > 10 µM
CC50 at 72 h [3]: > 10 µM
CC50 at 72 h [4]: > 10 µM
CC50 at 72 h [5]: > 10 µM
remaining at 24 h, 10 µM [6]: 52.4%
remaining at 24 h, 10 µM [7]: 96.3%
remaining at 24 h, 10 µM [8]: 22.6%
solubility at 4 h [9]: 410 µM (≈ 197 µg/mL)
solubility at 4 h [10]: 2220 µM (≈ 1070 µg/mL)
Papp at 5 h, 10 µM [11]: 0.01 nm/s
half-life [12]: 7.1 min

O=C(COc1cc(C(F)(F)F)nc2ccc(Br)cc12)Nc1ccc(N2CCC(c3ccccc3)CC2)cc1
MIC [1]: 34.2 µM (≈ 20 µg/mL)

Cc1cc(OCC(=O)Nc2ccc(N3CCC(c4ccccc4)CC3)cc2)c2cc(Cl)ccc2n1
MIC [1]: 0.02 µM (≈ 0.00972 µg/mL)
CC50 at 72 h [2]: > 10 µM
CC50 at 72 h [3]: > 10 µM
CC50 at 72 h [4]: > 10 µM
CC50 at 72 h [5]: > 10 µM
remaining at 24 h, 10 µM [6]: 90.6%
remaining at 24 h, 10 µM [7]: 100%
remaining at 24 h, 10 µM [8]: 99%
solubility at 4 h [9]: > 2060 µM
solubility at 4 h [10]: 4030 µM (≈ 1960 µg/mL)
Papp at 5 h, 10 µM [11]: 4.9 nm/s
half-life [12]: 177 min
Activity [13]: 2.46 log10CFU
Activity [14]: 0.48 log10CFU

Cc1cc(OCC(=O)Nc2ccc(N3CCC(c4ccc(OC(F)(F)F)cc4)CC3)cc2)c2cc(Cl)ccc2n1
MIC [1]: 0.14 µM (≈ 0.0798 µg/mL)

CCc1cc(OCC(=O)Nc2ccc(N3CCC(c4ccc(OC(F)(F)F)cc4)CC3)cc2)c2cc(Cl)ccc2n1
MIC [1]: 0.07 µM (≈ 0.0409 µg/mL)

CCc1cc(OCC(=O)Nc2ccc(N3CCC(c4ccccc4)CC3)cc2)c2cc(OC)ccc2n1
MIC [1]: 0.08 µM (≈ 0.0396 µg/mL)

CCc1cc(OCC(=O)Nc2ccc(N3CCC(c4ccc(OC(F)(F)F)cc4)CC3)cc2)c2cc(Br)ccc2n1
MIC [1]: 7.9 µM (≈ 4.97 µg/mL)

Cc1cc(OCC(=O)Nc2ccc(N3CCC(c4ccc(OC(F)(F)F)cc4)CC3)cc2)c2cc(Br)ccc2n1
MIC [1]: 0.06 µM (≈ 0.0369 µg/mL)

O=C(COc1cc(C(F)(F)F)nc2ccc(Cl)cc12)Nc1ccc(N2CCC(c3ccccc3)CC2)cc1
MIC [1]: 74 µM (≈ 40 µg/mL)

CCc1cc(OCC(=O)Nc2ccc(N3CCC(c4ccccc4)CC3)cc2)c2cc(Br)ccc2n1
MIC [1]: 0.07 µM (≈ 0.0381 µg/mL)

COc1ccc2nc(C(F)(F)F)cc(OCC(=O)Nc3ccc(N4CCC(c5ccccc5)CC4)cc3)c2c1
MIC [1]: 0.1 µM (≈ 0.0536 µg/mL)

CCc1cc(OCC(=O)Nc2ccc(N3CCC(c4ccccc4)CC3)cc2)c2cc(Cl)ccc2n1
MIC [1]: 0.04 µM (≈ 0.02 µg/mL)

NNC(=O)c1ccncc1 [ISONIAZID]
MIC [1]: 2.3 µM (≈ 0.315 µg/mL)

CCc1nc2ccc(Cl)cn2c1C(=O)NCc1ccc(N2CCC(c3ccc(OC(F)(F)F)cc3)CC2)cc1 [TELACEBEC]
MIC [1]: 0.009 µM (≈ 0.00501 µg/mL)
